Test results reported in BindingDB's records for doi:10.1016/S0960-894X(97)00125-X (1997).
Square brackets hold non-standard residues; d marks the D form. Peptide text beside a SMILES is read from it. * marks the point of attachment. Propionyl = CCC(=O)*; Mpa = O=C(O)CCS

target: Stromelysin-1 (MMP-3) (Rattus norvegicus) (UniProt P03957); test: Compound was tested for its inhibitory activity against Matrix metalloprotease-3 (MMP-3) in adjuvant arthritic rat model of rheumatoid arthritis
Sequence (P03957 whole entry, looked up): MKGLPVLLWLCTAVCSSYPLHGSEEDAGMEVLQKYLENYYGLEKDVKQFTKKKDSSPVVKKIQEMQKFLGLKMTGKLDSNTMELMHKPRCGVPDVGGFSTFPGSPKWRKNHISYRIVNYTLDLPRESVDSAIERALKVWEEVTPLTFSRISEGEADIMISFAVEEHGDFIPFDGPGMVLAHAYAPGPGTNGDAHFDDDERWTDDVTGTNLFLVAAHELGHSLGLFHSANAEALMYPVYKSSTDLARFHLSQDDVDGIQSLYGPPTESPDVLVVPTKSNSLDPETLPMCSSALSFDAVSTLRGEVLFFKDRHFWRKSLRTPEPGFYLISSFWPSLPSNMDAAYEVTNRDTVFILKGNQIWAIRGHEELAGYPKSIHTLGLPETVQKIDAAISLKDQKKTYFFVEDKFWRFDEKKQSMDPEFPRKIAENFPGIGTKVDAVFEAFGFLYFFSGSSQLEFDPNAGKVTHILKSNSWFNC

Q: How did the IC50 turn out when CNC(=O)[C@H](Cc1ccccc1)NC(=O)[C@H](C[S+](C)[O-])NC(=O)CS (stereo partly drawn) [(R)-2-(2-Mercapto-acetylamino)-3-methanesulfinyl-N-((S)-1-methylcarbamoyl-2-phenyl-ethyl)-propionamide] was run?
A: Its IC50 is 8500 nM.

Q: With CNC(=O)[C@H](Cc1ccccc1)NC(=O)[C@H](CSC)NC(=O)CS [(R)-2-(2-Mercapto-acetylamino)-N-((S)-1-methylcarbamoyl-2-phenyl-ethyl)-3-methylsulfanyl-propionamide] as the compound, how does the IC50 read?
A: The IC50 was 650 nM.

Q: Which IC50 does the source give for CNC(=O)[C@H](Cc1ccccc1)NC(=O)[C@H](CC(C)C)NC(=O)CS [(S)-2-(2-Mercapto-acetylamino)-4-methyl-pentanoic acid ((S)-1-methylcarbamoyl-2-phenyl-ethyl)-amide] here?
A: The IC50 was 2600 nM.

Q: For CNC(=O)[C@H](Cc1ccccc1)NC(=O)[C@H](CC(C)C)NC(=O)CCS [(S)-2-(3-Mercapto-propionylamino)-4-methyl-pentanoic acid ((S)-1-methylcarbamoyl-2-phenyl-ethyl)-amide] ([Mpa]-Leu-Phe-NHMe), which IC50 is on record?
A: The IC50 was greater than 100000 nM.

Q: How did the IC50 turn out when CNC(=O)[C@H](Cc1ccccc1)NC(=O)[C@@H](NC(=O)CS)C(C)O (stereo partly drawn) [(S)-3-Hydroxy-2-(2-mercapto-acetylamino)-N-((S)-1-methylcarbamoyl-2-phenyl-ethyl)-butyramide] was run?
A: The IC50 was greater than 100000 nM.

Q: With CNC(=O)[C@H](Cc1ccccc1)NC(=O)[C@H](CC(C)C)NC(=O)CSC [(S)-4-Methyl-2-(2-methylsulfanyl-acetylamino)-pentanoic acid ((S)-1-methylcarbamoyl-2-phenyl-ethyl)-amide] as the compound, how does the IC50 read?
A: The IC50 was greater than 100000 nM.

Q: CCC(=O)N[C@@H](CC(C)C)C(=O)N[C@@H](Cc1ccccc1)C(=O)NC [(S)-4-Methyl-2-propionylamino-pentanoic acid ((S)-1-methylcarbamoyl-2-phenyl-ethyl)-amide] (Propionyl-Leu-Phe-NHMe) was tested. Which IC50 did it give?
A: Its IC50 is greater than 100000 nM.

target: Stromelysin-1 (MMP-3) (Rattus norvegicus) (UniProt P03957); test: as above; remark: another data set of the same source

Q: Which IC50 does the source give for CNC(=O)[C@H](Cc1c[nH]c2ccccc12)NC(=O)[C@H](CSC)NC(=O)CS [(R)-N-[(S)-2-(1H-Indol-3-yl)-1-methylcarbamoyl-ethyl]-2-(2-mercapto-acetylamino)-3-methylsulfanyl-propionamide] here?
A: The IC50 was 810 nM.

Q: With CNC(=O)[C@H](Cc1cscn1)NC(=O)[C@H](CC(C)C)NC(=O)CS [(S)-2-(2-Mercapto-acetylamino)-4-methyl-pentanoic acid ((S)-1-methylcarbamoyl-2-thiazol-4-yl-ethyl)-amide] as the compound, how does the IC50 read?
A: The IC50 was 430 nM.

Q: CNC(=O)[C@H](Cc1c[nH]c2ccccc12)NC(=O)[C@H](CC(C)C)NC(=O)CS [(S)-2-(2-Mercapto-acetylamino)-4-methyl-pentanoic acid [(S)-2-(1H-indol-3-yl)-1-methylcarbamoyl-ethyl]-amide] was tested. Which IC50 did it give?
A: The IC50 was 430 nM.
